Values after ≈ are worked out from the molar mass of the structure shown. Read-outs that look alike come from different tables or passages of the source.
Experiments:
Type in all cases: cell-based
A. baumannii - NCTC13424 = conditions: drug at 4×MIC
Procedure: (§1) 1. Grow bacteria overnight.
(§2) 2. Subculture into an autoclaved conical flask containing 10 ml of TSB to an OD of 0.01 (˜1×10^7 Cfu/ml for KP-M6).
(§3) 4. Take aliquots (100 μl) at timepoints (0, 1, 2, 4, 6, 24 hours) and carry out a serial dilution in PBS (to remove drug and to dilute bacteria to countable numbers).
(§4) 5. Use the serial dilution to perform a Miles Misra—i.e. Add 3×10 μl spots of each dilution onto an agar plate. Incubate overnight and count colonies on spots in the morning.
(§5) 6. Control: Subculture bacteria alongside samples but with no antibiotic added. Take aliquots from this at every time point (0, 1, 2, 4, 6, 24 hours) and perform Miles Misra on these too (as detailed in points 4 and 5 above).
(§6) 7. After the first experiment, if the counts seen on Miles-Misra were zero, total viable counts were determined by spreading 200 μl in a streak down the centre of a TSB agar plate, waiting for the liquid to be absorbed and then spreading over the plate and checking for growth inhibition at the sight of the original streak.
(§7) 8. The compound is considered bactericidal if the inoculum was reduced >3 log10 CFU/ml and bacteriostatic if inoculum was reduced by 0-3 log10 CFU/ml.
(§8) Three measurements were taken for each compound at each time point. These measurements were averaged and the standard deviation was also calculated.

[1] = tested on: A. baumannii - NCTC 17978; test: Time kill kinetics; conditions: drug at 4×MIC
Procedure: as §1, §2, §3, §4, §5, §6, §7, §8

Psueudomonas GH12 = test: General MIC protocol, Gram negative; conditions: Pseudomonas
Procedure: General Minimum Inhibitory Concentration (MIC) Protocol
1. Grow up cultures of bacterial strains to be tested overnight.
2. Dilute down overnight cultures to concentration of 1×10^6 bacteria/ml (OD0.01) in Tryptic soy broth (TSB).
3. Add 100 μl of TSB media to column 2-column 12 in 96 well plate (keeping column 1 clear).
4. Make up compound to a concentration of 64 μg/ml in water (or alternatively to twice the chosen maximum concentration to be tested).
5. Add 100 μl of antibiotic solution to the 1st and 2nd columns.
6. Using a multichannel pipette take 100 μl from the 2nd column wells and pipette into 3rd column wells and repeat down the 96 well plate (remembering to include controls i.e. uninfected media and media with no antibiotic).
7. To each well (except uninfected control row H) add 100 μl of bacterially infected media at a concentration of 1×10^6/ml.
8. This dilutes down the concentration of the antibiotic by half (top dose is therefore 32 μg/ml in column 1) and also gives you a starting bacterial concentration of 5×10^5/ml.
9. Wrap plate with parafilm to prevent evaporation.
10. Leave at desired temperature (37° C. unless specified elsewhere) for 20 hours.
11. Next day check plates for growth and measure optical density (i.e. absorbance) at a wavelength of 600 nm (OD600).
An example of such a plate is shown in FIG. 1 where column A represents wells that receive the top dose 100 μl; column B represents wells that receive the top dose 100 μl+100 μl TSB; and column C represents wells that receive 100 μl TSB. Row H which is marked by a box labelled D represents a blank where the cells receive no bacteria.
The activity of the compound designated PP-A148 was tested against an extended panel of Klebsiella and Pseudomonas Gram-negative bacterial strains that have proven drug resistant difficult to treat. […] The minimum inhibitory concentration (MIC) was measured using the general MIC protocol given above.

Question: Which Average (CFU/mL) (A. baumannii - NCTC13424; time-point 1 hours) does the source give for `O=C(O)c1cn(C2CC2)c2cc(N3CCNCC3)c(F)cc2c1=O` [CIP, ciprofloxacin, reference compound] here?
Answer: 2.57e+06 CFU/mL

Question: And the n = 1 (CFU/mL) (A. baumannii - NCTC13424; time-point 1 hours)?
Answer: 2.5e+06 CFU/mL

Question: What about the n = 2 (CFU/ml) (A. baumannii - NCTC13424; time-point 1 hours) of the same compound?
Answer: 2.2e+06 CFU/ml

Question: What about the n = 3 (CFU/mL) (A. baumannii - NCTC13424; time-point 1 hours) of the same compound?
Answer: 3e+06 CFU/mL

Question: What about the Average (CFU/mL) (A. baumannii - NCTC13424; time-point 2 hours) of the same compound?
Answer: 42000 CFU/mL

Question: And the n = 1 (CFU/mL) (A. baumannii - NCTC13424; time-point 2 hours)?
Answer: 80000 CFU/mL

Question: And the n = 2 (CFU/ml) (A. baumannii - NCTC13424; time-point 2 hours)?
Answer: 21000 CFU/ml

Question: And the n = 3 (CFU/mL) (A. baumannii - NCTC13424; time-point 2 hours)?
Answer: 25000 CFU/mL

Question: What about the Average (CFU/mL) (A. baumannii - NCTC13424; time-point 4 hours) of the same compound?
Answer: 7330 CFU/mL

Question: What about the n = 1 (CFU/mL) (A. baumannii - NCTC13424; time-point 4 hours) of the same compound?
Answer: 12000 CFU/mL

Question: And the n = 2 (CFU/ml) (A. baumannii - NCTC13424; time-point 4 hours)?
Answer: 1000 CFU/ml

Question: What about the n = 3 (CFU/mL) (A. baumannii - NCTC13424; time-point 4 hours) of the same compound?
Answer: 9000 CFU/mL

Question: And the Average (CFU/mL) (A. baumannii - NCTC13424; time-point 6 hours)?
Answer: 11200 CFU/mL

Question: What about the n = 1 (CFU/mL) (A. baumannii - NCTC13424; time-point 6 hours) of the same compound?
Answer: 10000 CFU/mL

Question: What about the n = 2 (CFU/ml) (A. baumannii - NCTC13424; time-point 6 hours) of the same compound?
Answer: 14300 CFU/ml

Question: What about the n = 3 (CFU/mL) (A. baumannii - NCTC13424; time-point 6 hours) of the same compound?
Answer: 9200 CFU/mL

Question: What about the n = 1 (CFU/mL) (A. baumannii - NCTC13424; time-point 24 hours) of the same compound?
Answer: 3.6e+08 CFU/mL

Question: What about the n = 2 (CFU/ml) (A. baumannii - NCTC13424; time-point 24 hours) of the same compound?
Answer: 1.9e+09 CFU/ml

Question: What about the n = 3 (CFU/mL) (A. baumannii - NCTC13424; time-point 24 hours) of the same compound?
Answer: 2.75e+09 CFU/mL

Question: And the Average (CFU/ml) ([1]; time-point 1 hours)?
Answer: 7000 CFU/ml

Question: And the “n = 1 (Log CFU/ml)” value ([1]; time-point 1 hours)?
Answer: 19000 Log CFU/ml

Question: What about the “n = 2 (Log CFU/ml)” value ([1]; time-point 1 hours) of the same compound?
Answer: 0 Log CFU/ml

Question: What about the Average (CFU/ml) ([1]; time-point 2 hours) of the same compound?
Answer: 584 CFU/ml

Question: And the “n = 1 (Log CFU/ml)” value ([1]; time-point 2 hours)?
Answer: 1500 Log CFU/ml

Question: What about the “n = 2 (Log CFU/ml)” value ([1]; time-point 2 hours) of the same compound?
Answer: 0 Log CFU/ml

Question: And the Average (CFU/ml) ([1]; time-point 4 hours)?
Answer: 10.7 CFU/ml

Question: And the “n = 1 (Log CFU/ml)” value ([1]; time-point 4 hours)?
Answer: 0 Log CFU/ml

Question: And the “n = 2 (Log CFU/ml)” value ([1]; time-point 4 hours)?
Answer: 30 Log CFU/ml

Question: What about the Average (CFU/ml) ([1]; time-point 6 hours) of the same compound?
Answer: 0 CFU/ml

Question: And the “n = 1 (Log CFU/ml)” value ([1]; time-point 6 hours)?
Answer: 0 Log CFU/ml

Question: What about the “n = 2 (Log CFU/ml)” value ([1]; time-point 6 hours) of the same compound?
Answer: 0 Log CFU/ml

Question: What about the Average (CFU/ml) ([1]; time-point 24 hours) of the same compound?
Answer: 4 CFU/ml

Question: What about the “n = 1 (Log CFU/ml)” value ([1]; time-point 24 hours) of the same compound?
Answer: 10 Log CFU/ml

Question: And the “n = 2 (Log CFU/ml)” value ([1]; time-point 24 hours)?
Answer: 0 Log CFU/ml

Question: And the MIC (Psueudomonas GH12)?
Answer: 16 µg/mL (≈ 48.3 µM)

Reference: patent publication US10640507B2, “PBD antibacterial agents” (KING'S COLLEGE LONDON, priority 2015, dated 2020)
